Measurements as given in publication PMC9350387, “Synthetic α‐Helical Peptides as Potential Inhibitors of the ACE2 SARS‐CoV‐2 Interaction” (Chembiochem, 2022).

How the values were obtained:
[1] = Fractional α‐helicity by circular dichroism (CD) spectroscopy; format: physicochemical; conditions: for fH (exp), measured fractional helicity via CD spectroscopy: 60 μM peptide, 10 mM sodium phosphate buffer pH 7.4, 4 °C, CDSSTR algorithm on DichroWeb
[2] = target: Spike RBD RBD (Severe acute respiratory syndrome coronavirus 2), P0DTC2; assay: MST; conditions: modification not given

Molecule | fH (exp), measured fractional helicity via CD spectroscopy [1] [%] | α‐helicity from CD spectra (in words) ([1]; 60 μM, 10 mM sodium phosphate buffer, pH 7.4, 4 °C) | Kd [2] [µM]
Ac-QAKTFLDKFNHEAEDLFYQ-NH2 [P‐1‐3, N‐acetylated parent peptide, α1 from Gln24 to Gln42] | ≤1 |  | 
Ac‐ E QAK AAA DK AA HEAE AAA YQ K ‐NH2 [P‐3‐3] | 42 | pronounced α‐helicity | 
Ac‐ E QAKTFLDKFNHEAEDLFYQ K ‐NH2 [P‐2‐3] | 5 |  | 
Ac‐βHAsp‐P‐P‐QAKTFLDKFNHEAEDLFYQ‐NH2 [P‐1‐2] | 4 |  | 
Ac‐βHAsp‐[ProM‐5]‐QAKTFLDKFNHEAEDLFYQ‐NH2 [P‐1‐1, βHAsp‐ProM‐5 N‐capped peptide of ACE2 α1 Gln24 to Gln42] | 4 |  | 
PPEQAKTFLDKFNHEAEDLFYQK [ACE2 alpha1 peptide P-2-2] |  |  | 0.062
EQAKTFLDKFNHEAEDLFYQK [ACE2 alpha1 peptide P-2-1] |  |  | 1.21
